# According to patent US20070293553A1, “Diphenylurea Derivatives Useful As Potassium Channel Activators” (priority 2004, published 2007):
# What was measured:
# [1] = test system: cough reflex in conscious guinea-pigs; assay: Citric acid-induced cough in conscious guinea-pigs; type: in vivo, guinea-pig; conditions: prior exposure to aerosolized test compound (300 μM in nebulizer solution), 10 minutes citric acid aerosol, FIG. 1
# Description: Exposure of animals for 10 minutes with citric acid aerosol elicited a reproducible cough response.
# The cough model is based on guinea-pigs that have been pre-screened to assess their cough response to a 10 minutes exposure of aerosolised 0.35 M citric acid. […] The guinea-pigs are then ranked with regard to their tussive response to citric acid and divided into groups so that the mean number of coughs per group is similar in the vehicle and drug treated groups.
# Cough is detected both by pressure change and by sound and recorded using a chart recorder. All animals received Terbutaline (0.05 mg/kg i.p.) 10 minutes prior to challenge with citric acid to alleviate any bronchoconstriction that may occur. These animals were allowed to recover for 1 week. Following this rest period the study was initiated and animals received aerosolised vehicle (1% DMSO) or test compound at 300 μM in 1% DMSO in saline for 20 minutes prior to exposure to citric acid. After dosing, the animals were monitored and exposed to 0.35 M citric acid for 10 minutes, and the number of coughs recorded.
# Initially N-(3,5-Dichlorophenyl)-N′-[3-(1H-tetrazol-5-yl)-3′-trifluoromethyl-bi-phenyl-4-yl]-urea (Compound A (3-39)) and N-(3,5-Dichlorophenyl)-N′-[4-bromo-2-(1H-tetrazol-5-yl)phenyl]urea (Compound B) were subjected to this determination, and the results of these determinations are presented in FIG. 1.
melting point [°C],Structure (SMILES),cough response to citric acid [1]
–,"O=C(Nc1cc(Cl)cc(Cl)c1)Nc1ccc(Br)cc1-c1nnn[nH]1 [Compound B, N-(3,5-Dichlorophenyl)-N′-[4-bromo-2-(1H-tetrazol-5-yl)phenyl]urea]",greatly reduced
236 to 239,"O=C(Nc1cc(Cl)cc(Cl)c1)Nc1ccc(-c2cccc(C(F)(F)F)c2)cc1-c1nnn[nH]1 [Compound 3-39, N-(3,5-Dichloro-phenyl)-N′-[3-(1H-tetrazol-5-yl)-3′-trifluoromethyl-biphenyl-4-yl]-urea]",greatly reduced
251 to 253,"O=C(Nc1cc(C(F)(F)F)cc(C(F)(F)F)c1)Nc1ccc(-c2ccc(F)cc2)cc1-c1nnn[nH]1 [Compound 3-16, N-(3,5-Bis-trifluoromethyl-phenyl)-N′-[4′-fluoro-3-(1H-tetrazol-5-yl)-biphenyl-4-yl]-urea]",–
245 to 247,"O=C(Nc1cc(F)cc(F)c1)Nc1ccc(-c2ccc(C(F)(F)F)cc2)cc1-c1nnn[nH]1 [Compound 3-7, N-(3,5-Difluoro-phenyl)-N′-[3-(1H-tetrazol-5-yl)-4′-trifluoromethyl-biphenyl-4-yl]-urea]",–
246 to 248,"O=C(Nc1cc(C(F)(F)F)cc(C(F)(F)F)c1)Nc1ccc(-c2ccc(C(F)(F)F)cc2)cc1-c1nnn[nH]1 [Compound 3-13, N-(3,5-Bis-trifluoromethyl-phenyl)-N′-[3-(1H-tetrazol-5-yl)-4′-trifluoromethyl-biphenyl-4-yl]-urea]",–
256 to 258,"O=C(Nc1cc(-c2ccc(F)cc2)cc(-c2nnn[nH]2)c1)Nc1cccc(C(F)(F)F)c1 [Compound 3-8, N-(3-Trifluoromethyl-phenyl)-N′-[4′-fluoro-3-(1H-tetrazol-5-yl)-biphenyl-5-yl]-urea]",–
238 to 241,"O=C(Nc1cc(F)cc(F)c1)Nc1ccc(-c2ccc(OC(F)(F)F)cc2)cc1-c1nnn[nH]1 [Compound 3-35, N-(3,5-Difluoro-phenyl)-N′-[3-(1H-tetrazol-5-yl)-4′-trifluoromethoxy-biphenyl-4-yl]-urea]",–
226 to 230,"O=C(Nc1cc(Cl)cc(Cl)c1)Nc1ccc(-c2ccc(C(F)(F)F)cc2)cc1-c1nnn[nH]1 [Compound 3-6, N-(3,5-Dichloro-phenyl)-N′-[3-(1H-tetrazol-5-yl)-4′-trifluoromethyl-biphenyl-4-yl]-urea]",–
251 to 252,"O=C(Nc1ccccc1F)Nc1ccc(-c2ccc(C(F)(F)F)cc2)cc1-c1nnn[nH]1 [Compound 3-24, N-(2-Fluoro-phenyl)-N′-[3-(1H-tetrazol-5-yl)-4′-trifluoromethyl-biphenyl-4-yl]-urea]",–
